# Structures can show the parent of a compound that is named as a salt. Where two headings read alike, the source gives them in different places.
# Legend:
# [1] = molecular target: T1, nNOS (type 1) (Rattus norvegicus, UniProt P29476); experiment: NOS activity, conversion of L-[3H]arginine to L-[3H]citrulline, crude enzyme of nNOS; format: biochemical; settings: for Ratio of IC50 eNOS/nNOS / Ratio of IC50 iNOS/nNOS: index of selectivity
# T1 construct: from tissue; host or cells: rat cerebral cortex, 100,000 x g supernatant (cytosol)
# Description: The crude enzyme of nNOS was prepared by the following procedure. Normal untreated male Sprague Dawley (SD) rats (body weight, 300-400 g) were decapitated; the whole brain was immediately taken out from each animal and the cerebral cortex was separated on ice. Then, 5 volumes of 50 mM Tris-HCl containing 1 mM DTT (pH 7.4) was added and the mixture was homogenized for 3 min and centrifuged at 1,000×g for 10 min. The resulting supernatant was further centrifuged at 100,000×g for 60 min and a soluble cytosolic fraction of the finally obtained supernatant was used as the crude enzyme of nNOS.
# (§1) The reaction was started by addition of L-[^3H] arginine. After incubation at 37° C. for 10 min, the reaction was terminated by addition of 2 ml of 50 mM Tris-HCl (pH 5.5) containing 1 mM EDTA and placing the mixture on ice. The reaction solution was passed through a cation-exchange resin column (Dowex AG50WX-8, Na^+ form, 3.2 ml) to separate the reaction product L-[^3H] citrulline from the unreacted residual substrate L-[^3H] arginine. The eluate was combined with another eluate resulting from the passage of a given amount of distilled water through the column and put into a minivial for recovery of L-[^3H] citrulline. Thereafter, a scintillation fluid was added and the contained radioactivity was measured with a liquid scintillation counter to determine the amount of L-[^3H] citrulline.
# The activity of nNOS or eNOS was determined by subtracting the activity detected in the absence of CaCl2 and calmodulin from the activity detected in the presence of CaCl2 and calmodulin. The protein concentration of each crude enzyme sample was determined with a micro-assay kit of Bio Rad Co. Each experiment was conducted in a duplicate.
# [2] = molecular target: T2, eNOS (type 3) (Bos taurus, UniProt P29473); experiment: NOS activity, conversion of L-[3H]arginine to L-[3H]citrulline, crude enzyme of eNOS; format: biochemical, cow; settings: for IC50: crude enzyme from cow pulmonary arterial endothelium cells (CPAE), 100 nM L-[3H]arginine, 37° C., 10 min; for Ratio of IC50 eNOS/inos: index of selectivity
# T2 construct: Cow pulmonary arterial endothelium cells (CPAE) were cultured in a MEM medium containing 20% FBS; endogenous in cells; host or cells: CPAE (cow pulmonary arterial endothelium cells), detergent extract, 100,000 x g supernatant
# [3] = molecular target: iNOS (type 2) (Rattus norvegicus, UniProt Q06518); experiment: NOS activity, conversion of L-[3H]arginine to L-[3H]citrulline, iNOS; format: biochemical; settings: 100 nM L-[3H]arginine, 37° C., 10 min
# Description: Crude enzymes of the respective NOS isoforms were prepared by the following procedures (Nagafuji et al., Neuroreport 6, 1541-1545, 1995).
# The method of measuring NOS activity was basically the same as already reported by the present inventors and consisted of determining quantitatively the conversion of a substrate L-[^3H]arginine to a reaction product L-[^3H] citrulline (Nagafuji et al., in Brain Edema IX (Ito et al, eds.) 60, pp. 285-288, 1994; Nagafuji et al., Neuroreport 6, 1541-1545, 1995)
# The reaction solution consisted of 100 nM L-[^3H] arginine, a prepared crude NOS enzyme sample (10-30 μg/ml protein), 1.25 mM CaCl2, 1 mM EDTA, 10 μg/ml calmodulin, 1 mM NADPH, 100 μM tetrahydrobiopterine, 10 μM FAD, 10 μM FMN and 50 mM Tris-HCl (pH 7.4), to which one of the compounds of the invention or one of the control compounds was added.
# as §1
# [4] = crude enzyme from rat cerebral cortex, soluble cytosolic fraction, 100 nM L-[3H]arginine, 37° C., 10 min, read-out: IC50 (nM) nNOS (type 1)
# iNOS (type 2), sequence (Q06518 whole entry, canonical isoform): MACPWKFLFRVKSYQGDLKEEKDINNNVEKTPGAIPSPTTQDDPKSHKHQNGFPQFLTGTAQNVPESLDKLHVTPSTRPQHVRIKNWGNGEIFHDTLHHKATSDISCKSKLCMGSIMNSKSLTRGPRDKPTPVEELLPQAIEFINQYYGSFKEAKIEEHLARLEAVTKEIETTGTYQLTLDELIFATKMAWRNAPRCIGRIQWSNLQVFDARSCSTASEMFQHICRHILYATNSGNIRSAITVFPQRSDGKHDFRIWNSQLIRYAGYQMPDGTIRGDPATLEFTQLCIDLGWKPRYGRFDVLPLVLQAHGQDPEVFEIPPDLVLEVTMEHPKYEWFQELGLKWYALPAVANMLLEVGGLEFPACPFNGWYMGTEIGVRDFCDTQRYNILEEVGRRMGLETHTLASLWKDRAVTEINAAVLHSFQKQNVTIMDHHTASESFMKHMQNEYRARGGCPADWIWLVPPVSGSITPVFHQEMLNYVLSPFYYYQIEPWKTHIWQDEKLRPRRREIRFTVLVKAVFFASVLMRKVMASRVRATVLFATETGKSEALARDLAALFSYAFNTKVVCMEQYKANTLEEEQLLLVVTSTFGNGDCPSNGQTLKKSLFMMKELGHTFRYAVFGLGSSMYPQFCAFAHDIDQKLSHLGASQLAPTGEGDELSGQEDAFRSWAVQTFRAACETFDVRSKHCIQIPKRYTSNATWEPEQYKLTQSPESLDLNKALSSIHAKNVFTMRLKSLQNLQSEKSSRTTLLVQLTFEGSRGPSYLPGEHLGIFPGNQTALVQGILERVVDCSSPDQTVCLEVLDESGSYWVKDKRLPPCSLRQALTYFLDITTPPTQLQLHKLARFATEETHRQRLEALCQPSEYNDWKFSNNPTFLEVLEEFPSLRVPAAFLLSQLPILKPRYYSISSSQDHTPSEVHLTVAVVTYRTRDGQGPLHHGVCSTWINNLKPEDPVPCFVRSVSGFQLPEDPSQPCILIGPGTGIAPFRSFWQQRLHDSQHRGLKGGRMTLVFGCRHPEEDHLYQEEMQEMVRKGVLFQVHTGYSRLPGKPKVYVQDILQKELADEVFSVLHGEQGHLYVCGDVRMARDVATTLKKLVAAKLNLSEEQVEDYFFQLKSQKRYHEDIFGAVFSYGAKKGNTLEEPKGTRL
# T2 sequence (P29473 2-1205): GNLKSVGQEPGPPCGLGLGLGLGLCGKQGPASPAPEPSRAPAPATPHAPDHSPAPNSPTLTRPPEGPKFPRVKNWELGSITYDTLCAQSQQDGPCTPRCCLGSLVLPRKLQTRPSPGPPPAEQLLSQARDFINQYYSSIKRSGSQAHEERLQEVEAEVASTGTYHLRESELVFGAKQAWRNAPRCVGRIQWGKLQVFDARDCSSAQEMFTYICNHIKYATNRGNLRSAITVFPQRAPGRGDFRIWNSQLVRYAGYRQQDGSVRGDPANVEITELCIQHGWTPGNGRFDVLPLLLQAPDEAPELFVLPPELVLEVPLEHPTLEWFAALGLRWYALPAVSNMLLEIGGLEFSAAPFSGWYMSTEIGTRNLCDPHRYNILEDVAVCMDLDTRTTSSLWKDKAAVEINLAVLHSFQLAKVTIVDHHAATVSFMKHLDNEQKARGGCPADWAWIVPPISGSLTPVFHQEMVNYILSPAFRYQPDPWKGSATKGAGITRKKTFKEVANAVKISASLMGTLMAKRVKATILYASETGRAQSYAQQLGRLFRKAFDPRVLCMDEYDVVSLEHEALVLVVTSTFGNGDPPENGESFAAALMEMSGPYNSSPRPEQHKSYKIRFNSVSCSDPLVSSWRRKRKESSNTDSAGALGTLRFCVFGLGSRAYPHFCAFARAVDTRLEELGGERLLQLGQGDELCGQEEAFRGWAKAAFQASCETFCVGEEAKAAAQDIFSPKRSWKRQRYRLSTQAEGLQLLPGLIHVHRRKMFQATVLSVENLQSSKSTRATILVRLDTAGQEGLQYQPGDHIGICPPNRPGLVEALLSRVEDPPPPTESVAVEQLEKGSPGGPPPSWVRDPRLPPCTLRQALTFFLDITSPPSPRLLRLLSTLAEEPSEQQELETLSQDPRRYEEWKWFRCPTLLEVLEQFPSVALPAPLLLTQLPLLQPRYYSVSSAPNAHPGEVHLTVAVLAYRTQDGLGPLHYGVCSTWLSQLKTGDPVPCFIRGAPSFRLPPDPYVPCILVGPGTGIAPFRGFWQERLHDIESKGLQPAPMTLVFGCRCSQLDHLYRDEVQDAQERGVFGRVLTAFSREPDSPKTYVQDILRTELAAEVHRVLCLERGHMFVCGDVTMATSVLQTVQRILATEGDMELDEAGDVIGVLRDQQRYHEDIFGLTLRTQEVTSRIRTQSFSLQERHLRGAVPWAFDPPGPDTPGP
SMILES,"IC50 [1, 4]",Ratio of IC50 eNOS/nNOS [1],Ratio of IC50 iNOS/nNOS [1],IC50 [2],Ratio of IC50 eNOS/inos [2],IC50 [3],nNOS inhibiting activity compared with L-MIN ([1]; comparison drawn from Table 2),selectivity for nNOS inhibition over eNOS compared with L-EIN ([1]; comparison drawn from Table 2),IC50 [1]
"CCSC(=N)Nc1ccc(-n2cccc2)c(CN)c1 [Example 1, N-(3-aminomethyl-4-(pyrrol-1-yl)phenyl)-S-ethylisothiourea dihydrochloride]",3.7 nM,515,2120,1920 nM,0.243,7930 nM,more potent nNOS inhibiting activity than L-MIN,higher selectivity for nNOS inhibition over eNOS than L-EIN,
"CCSC(=N)Nc1ccc(-n2cccn2)c(CN)c1 [Example 2, N-(3-aminomethyl-4-(pyrazol-1-yl)phenyl)-S-ethylisothiourea dihydrochloride]",6.3 nM,816,3260,5130 nM,0.250,20500 nM,,higher selectivity for nNOS inhibition over eNOS than L-EIN,
"CCSC(=N)NCCC[C@H](N)C(=O)O [L-EIN, S-ethyl-L-thiocitrulline]",,,,732 nM,,6760 nM,,,8.4 nM
"CSC(=N)NCCC[C@H](N)C(=O)O [L-MIN, S-methyl-L-thiocitrulline, reference compound]",,6.28,43.3,35.8 nM,0.145,248 nM,,,5.7 nM
"COC(=O)[C@@H](N)CCCNC(=N)N[N+](=O)[O-] [L-NAME, N^G-nitro-L-arginine methyl ester, reference compound]",,,,670 nM,,13500 nM,,,

# Further lines, with some results ahead:
"IC50 [1, 4]",Ratio of IC50 eNOS/nNOS [1],Ratio of IC50 iNOS/nNOS [1],IC50 [2],Ratio of IC50 eNOS/inos [2],IC50 [3],SMILES,nNOS inhibiting activity compared with L-MIN ([1]; comparison drawn from Table 2),selectivity for nNOS inhibition over eNOS compared with L-EIN ([1]; comparison drawn from Table 2),IC50 [1]
22.4 nM,943,,21100 nM,,,"CCSC(=N)Nc1ccc(-n2cccn2)c(CN)c1C [Example 7, N-(3-aminomethyl-2-methyl-4-(pyrazol-1-yl)phenyl)-S-ethylisothiourea dihydrochloride]",,higher selectivity for nNOS inhibition over eNOS than L-EIN,
,,,1540 nM,,7150 nM,"N=C(NCCC[C@H](N)C(=O)O)NC1CC1 [L-CPA, N^G-cyclopropyl-L-arginine]",,,
,,,,,3460 nM,"N=C(NCCC[C@H](N)C(=O)O)N[N+](=O)[O-] [L-NA, N^G-nitro-L-arginine]",,,

# From US6414005B1, “Heterocyclic compounds having nos inhibitory activities” (Chugai Seiyaku Kabushiki Kaisha, priority 1997, dated 2002)
